These are literature values, as cited in patent publication US7138430B2, “Nitrosated and nitrosylated nebivolol and its metabolites, compositions and methods of use” (NitroMed, Inc., priority 2001, dated 2006).

`O=[N+]([O-])O[C@H]1CO[C@H]2[C@@H]1OC[C@H]2O[N+](=O)[O-]` [isosorbide dinitrate, 1,4,3,6-dianhydro-D-glucitol-2,5-dinitrate]: the “solubility in organic solvents” value (organic solvents such as ethanol, ether and chloroform) was “freely soluble”. The solubility in water result (water) was “sparingly soluble”.
